The assay addresses Serotonin N-acetyltransferase (Ovis aries) (UniProt Q29495). Put plainly: AANAT activity was measured using a spectrophotometric assay in which the enzymatic product CoASH concentration were determined indirectly by monitoring its reaction product with DTNB at 412nm. The note with it: pH 6.8.

Sequence of Serotonin N-acetyltransferase (Ovis aries) (Q29495 whole entry, looked up): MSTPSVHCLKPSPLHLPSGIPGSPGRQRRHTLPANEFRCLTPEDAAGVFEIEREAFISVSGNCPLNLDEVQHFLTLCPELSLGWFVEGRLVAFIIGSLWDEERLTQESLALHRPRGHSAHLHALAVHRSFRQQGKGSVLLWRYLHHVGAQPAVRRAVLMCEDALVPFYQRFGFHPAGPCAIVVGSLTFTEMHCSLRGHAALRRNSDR

As usually defined, the Ki is a dissociation constant, usually derived from enzyme kinetics or from competition with a known ligand. Low values mean a stronger hold on the target, high ones a looser hold on the target. Compound `CC(C)(COP(=O)(O)OP(=O)(O)OC[C@H]1OC(n2cnc3c(N)ncnc32)[C@@H](O)[C@@H]1OP(=O)(O)O)[C@@H](O)C(=O)NCCC(=O)NCCSCCCCCc1c[nH]c2ccccc12` (some centres undefined) [AANAT bisubstrate analog, 4] registered a Ki of 360 nM. As for `CC(C)(COP(=O)(O)OP(=O)(O)OC[C@H]1OC(n2cnc3c(N)ncnc32)[C@@H](O)[C@@H]1OP(=O)(O)O)[C@@H](O)C(=O)NCCC(=O)NCCSCCCCc1c[nH]c2ccccc12` (some centres undefined) [AANAT bisubstrate analog, 5], the affinity corresponds to a Ki of 310 nM. Consider `CC(C)(COP(=O)(O)OP(=O)(O)OC[C@H]1OC(n2cnc3c(N)ncnc32)[C@@H](O)[C@@H]1OP(=O)(O)O)[C@@H](O)C(=O)NCCC(=O)NCCSCCCc1c[nH]c2ccccc12` (some centres undefined) [AANAT bisubstrate analog, 6], for which the affinity corresponds to a Ki of 840 nM. Against the preceding compound, the Ki is about 2.7-fold higher. In turn, `CC(C)(COP(=O)(O)OP(=O)(O)OC[C@H]1OC(n2cnc3c(N)ncnc32)[C@@H](O)[C@@H]1OP(=O)(O)O)[C@@H](O)C(=O)NCCC(=O)NCCSCCCNCCc1c[nH]c2ccccc12` (some centres undefined) [AANAT bisubstrate analog, 7] returned an inhibition constant Ki of 5840 nM.

Values taken from BindingDB's records for doi:10.1016/S0045-2068(03)00081-6 (Johns Hopkins University School of Medicine, 2003).
